Experiments:
[1] = Echinomycin concentration in SUM 159 breast tumor tissue after single i.v. injection; type: in vivo, NSG mice; conditions: 0.1 mg/kg single i.v., SUM 159 tumor
Description: FIG. 6. Accumulation of Echinomycin in tumor. Concentration of echinomycin in breast tumor SUM 159 following single dose i.v. injection (0.1 mg/kg) of liposomal and conventionally formulated echinomycin. n=3/time-point.
In contrast, administration of liposomal echinomycin (Lipo-EM) at the same dose of 0.1 mg/kg achieved a tissue concentration >5 ng/g, which was prolonged for more than 10 hrs following administration (FIG. 6). More importantly, peak drug levels in the liposomal echinomycin-treated group were approximately 6-fold higher than those treated with free echinomycin.

[2] = tested on: SUM159 breast cancer cells; test: SUM159 breast cancer xenograft efficacy; type: in vivo, NSG mice; conditions: 0.1 mg/kg i.v. once every 3 days, 6 doses
Description: FIG. 11. Therapeutic effect of liposomal echinomycin on breast cancer in vivo. (Panel A) Female NSG mice were xenografted with human SUM159 breast cancer cells and treated with free echinomycin or vehicle (n=10 per group). Mice received 0.1 mg/kg of free echinomycin or vehicle via i.v. injection once every 3 days starting on day 28 for a total of 6 doses. Growth kinetics of SUM159 are shown. (Panel B) Female NSG mice were xenografted with SUM159 breast cancer cells and treated with liposomal echinomycin or vehicle (n=5 per group). The growth kinetics of SUM159 in recipient mice treated with vehicle and liposomal echinomycin are shown. Mice received 0.35 mg/kg of liposomal echinomycin or vehicle by i.v. injection on days 9, 11, 13, 25 and 27. Average tumor volume was recorded throughout the experiment. Error bars represent ±SEM. Individual treatments and dosage are denoted by asterisks. (Panel C) Mice were euthanized, and tumors were dissected and photographed. […] Weight is expressed as average weight ±s.d., P value was calculated by t test.
To test the therapeutic efficacy of free echinomycin (in PBS), Lipo-EM, and vehicle in breast cancer cells in vivo, SUM159 cells were xenografted in the mammary fat pad of NOD-SCID mice. […] In addition, Growth kinetics of the transplanted tumors were measured by volume (FIG. 11, panel B) and by weight (FIG. 11, panel C and panel D). […]

MCF7 cells = test: MTT cell viability assay, MCF7; type: cell-based, human; conditions: 48 hrs, compared with SUM159
Description: (§1) FIG. 9. Echinomycin reduced the number of live breast cancer cells in vitro. Breast cancer cells with high (SUM 159) or low (MCF7) levels of HIF-1α were treated with various concentrations of echinomycin in vitro. The correlation between echinomycin concentration and relative proportions of surviving cells after co-culturing with echinomycin is shown. SUM 159 cells with high HIF-1α are more sensitive to echinomycin than MCF7, which express less HIF-1α.
(§2) To better understand the importance of high HIF-1α expression in breast cancer cells, the ability of echinomycin to reduce survival of breast cancer cells was tested in two breast cancer cell lines, MCF7 and SUM 159. More specifically, MCF7 and SUM 159 were treated with different concentrations of echinomycin for 48 hrs, followed by MTT assays to measure cell viability thereafter.

SUM159 cells = test: MTT cell viability assay, SUM 159; type: cell-based; conditions: Homo sapiens, 48 hrs, read-out: IC50 (number of live cells)
Description: as §1, §2

human ETP-ALL-1 cells = test: ETP-ALL xenograft model, human CD45+ cells in blood by FACS; type: in vivo, NSG mice; conditions: echinomycin in PBS 0.1 mg/kg x15 doses; Lipo-EM 0.35 mg/kg x10 doses; blood days 34, 50, 65
Description: FIG. 8. Liposomal echinomycin eliminates human ETP-ALL cells in a xenograft mouse model. (Panel A) Dosing regimen of liposomal echinomycin treatment for ETP-ALL humanized mice for data in panel B. Day 0 indicates day of transplantation with human ETP-ALL-1 cells. Green arrows represent one individual liposomal echinomycin injection (0.35 mg/kg/injection via i.v.). Red arrows indicate blood tests. (Panel B) NSG mice with 1.3 Gys irradiated were given i.v. injection of 1×10^6 human ETP-ALL-1 cells. Human CD45^+ cells in PBMC of recipients were detected by FACS analysis at day 34 after transplantation. The percentage of human CD45^+ in PBMC of recipient mice before treatment (Day 34) and after treatment (Day 42, 48, 56, and 64) of mice (vehicle and liposomal echinomycin treatment) was analyzed by FACS analysis. […] The percentage of human CD45^+ in PBMC of recipients after echinomycin treatment (Day 34, 50, and 65) of mice was analyzed by FACS analysis.
To test whether administration of liposomal echinomycin (Lipo-EM) could eliminate human ETP-ALL cells in vivo, Lipo-EM was administered to xenografted ETP-ALL NSG mice according to the dosing schedule outlined in FIG. 8, panel A. Briefly, 1×10^6 ETP ALL-1 cells were transplanted via i.v. injection into 1.3 Gys irradiated NSG mice. […] The percentage of human ETP ALL-1 cells was monitored after treatment. […]

[3] = Liposomal echinomycin toxicity in mice (body weight, survival); type: in vivo, NSG mice; conditions: 1 mg/kg single i.v.
Description: FIG. 4. Comparison of toxicity and efficacy for liposomal vs. free echinomycin. (Panel A) Body weight change in female NSG mice receiving a therapeutic cycle of liposomal echinomycin, PBS echinomycin (20% DMSO in PBS), or equivalent dosage of empty liposomal vehicle. Mice were treated with 250 μg/kg of liposomal (n=7) or free (n=7) echinomycin, or vehicle equivalent (n=4), by i.v. once every other day for a total of 3 doses). (Panel B) Survival of NSG mice administered single i.v. injection of 1 mg/kg liposomal or free echinomycin, or equivalent dosage of empty liposomal vehicle.
To test the toxicity of liposomal echinomycin in mice, a therapeutic cycle of echinomycin was administered at a dose of 250 μg/kg, (liposomal-formulated, non-liposomal-formulated, or equivalent dosage of empty liposomal vehicle) by i.v. injection, every other day for a total of 3 doses. Body weights of the mice were monitored throughout this period.

[4] = cited from earlier work
[5] = Intravenous tolerability / LD50 in mice; conditions: mouse, in vivo
[6] = Plasma pharmacokinetics by mass spectrometry after single i.v. injection; type: in vivo, mice; conditions: 0.1 mg/kg single i.v.
Description: FIG. 5. Comparison of pharmacokinetics for liposomal vs. free echinomycin. Serum plasma levels of echinomycin detected by MS following single dose i.v. administration of 0.1 mg/kg liposomal echinomycin or free echinomycin
PEG shields liposomes from rapid uptake by the RES and provides steric stabilization to the liposome particles. To measure the prolonged circulation of liposomal echinomycin in the bloodstream compared to free echinomycin, the pharmacokinetics of both formulations were evaluated by detecting echinomycin levels in the plasma by mass spectrometry following single i.v. injections of 0.1 mg/kg of liposomal echinomycin or free echinomycin in mice (FIG. 5).

CS[C@H]1SC[C@H]2C(=O)N(C)[C@@H](C(C)C)C(=O)OC[C@@H](NC(=O)c3cnc4ccccc4n3)C(=O)N[C@@H](C)C(=O)N(C)[C@@H]1C(=O)N(C)[C@@H](C(C)C)C(=O)OC[C@@H](NC(=O)c1cnc3ccccc3n1)C(=O)N[C@@H](C)C(=O)N2C [free echinomycin, Echinomycin]
time point at which tumor concentration >5 ng/g is achieved (only) [1]: 2 h | tumor size vs vehicle control [2]: no significant differences in tumor size | sensitivity to echinomycin (MCF7 cells): less sensitive | IC50 (SUM159 cells): 1 nM | growth of ETP-ALL-1 cells in recipients (comparison study) (human ETP-ALL-1 cells): did inhibit the growth rate of ETP-ALL-1 cells | survival (in words) [3]: died within a week | solubility in ethanol, alkalis, ketones, acetic acid and chloroform [4]: soluble | solubility in water ([4]; water): insoluble | LD50 [5]: 0.629 mg/kg | time point at which plasma concentration >1 ng/ml is achieved (only) [6]: 15 min
